Reference: ChEMBL document CHEMBL5303304, “EUbOPEN Chemogenomics Library - IncuCyte” (2023)

Experiments:
Type in all cases: toxicity, cell-based
[1] = test system: Fibroblast; assay: Incucyte cell viability with human fibroblast; conditions: 10 µM, compound concentration 10 uM
[2] = test system: U2OS; assay: Incucyte cell viability with U2OS; conditions: human, 10 µM, compound concentration 10 uM
[3] = test system: HEK-293T; assay: Incucyte cell viability with HEK293T; conditions: human, 10 µM, compound concentration 10 uM
Further: unitless GR value; below 1 slowed growth and below 0 cell loss.

Structure (SMILES) | Growth Rate ([1]; 0 h, replicate number 2) | Growth Rate ([2]; 12 h, replicate number 2) | Growth Rate ([2]; 18 h, replicate number 1) | Growth Rate ([2]; 18 h, replicate number 2) | Growth Rate ([2]; 24 h, replicate number 1) | Growth Rate ([2]; 24 h, replicate number 2) | Growth Rate ([3]; 0 h, replicate number 1) | Growth Rate ([3]; 0 h, replicate number 2) | Growth Rate ([3]; 6 h, replicate number 1) | Growth Rate ([3]; 6 h, replicate number 2) | Growth Rate ([3]; 12 h, replicate number 2) | Growth Rate ([3]; 18 h, replicate number 1) | Growth Rate ([3]; 18 h, replicate number 2) | Growth Rate ([3]; 24 h, replicate number 2) | Growth Rate ([1]; 18 h, replicate number 1) | Growth Rate ([1]; 6 h, replicate number 2) | Growth Rate ([1]; 12 h, replicate number 2) | Growth Rate ([1]; 18 h, replicate number 2) | Growth Rate ([1]; 24 h, replicate number 1) | Growth Rate ([2]; 6 h, replicate number 1) | further results
O=C1NC(Nc2ccccc2)=N/C1=C\c1ccc2c(c1)OCO2 | -0.92 | 0.39 | 0.85 | 0.66 | 0.95 | 0.66 | 0.4 | 0.1 | 0.83 | 0 | 0.19 | 0.43 | 0.47 | 0.33 | – | – | – | – | – | – | Growth Rate ([1]; 6 h, replicate number 1): -0.96; Growth Rate ([2]; 6 h, replicate number 2): 0.78; Growth Rate ([3]; 12 h, replicate number 1): 0.37; Growth Rate ([3]; 24 h, replicate number 1): 0.56
COc1ccc(-n2c(C)c([N+](=O)[O-])c3ccc(O)cc32)cc1 | 0.13 | 0.65 | 0.88 | 0.61 | 0.91 | 0.77 | 0.26 | -0.46 | – | – | – | – | – | – | -0.35 | – | – | – | – | – | –
Cc1csc(S(=O)(=O)N(CC(C)C)c2cc3c(cc2OCc2ccc(C(=O)O)cc2)CCC3)n1 | -0.95 | 0.88 | 0.99 | 0.83 | 0.99 | 0.86 | -0.23 | -0.11 | – | – | – | – | – | – | – | 0.06 | 0.69 | – | – | – | Growth Rate ([1]; 6 h, replicate number 1): 0.68; Growth Rate ([2]; 6 h, replicate number 2): 0.87
CCc1cc2c(cc1-c1cccc(S(=O)(=O)F)c1)C(C)(C)c1[nH]c3cc(C#N)ccc3c1C2=O | – | 0.66 | 0.76 | – | 0.66 | 0.77 | 0.33 | 0.37 | -0.16 | -0.05 | 0.78 | 0.83 | 0.95 | – | -0.55 | 0.75 | – | 0.89 | 0.61 | 0.58 | Growth Rate ([1]; 0 h, replicate number 1): -0.25; Growth Rate ([1]; 12 h, replicate number 1): -0.96; Growth Rate ([1]; 24 h, replicate number 2): 0.9; Growth Rate ([2]; 0 h, replicate number 1): -1; Growth Rate ([2]; 0 h, replicate number 2): -0.59; Growth Rate ([2]; 12 h, replicate number 1): 0.52; Growth Rate ([3]; 12 h, replicate number 1): 0.48; Growth Rate ([3]; 24 h, replicate number 1): 0.69
COc1cc(C(=O)NCCOCCOCCOCC(=O)N[C@H](C(=O)N2C[C@@H](O)C[C@H]2C(=O)NCc2ccc(-c3scnc3C)cc2)C(C)(C)C)ccc1Nc1ncc(C(F)(F)F)c(Oc2cccc3c2C(=O)CC3)n1 | 0.86 | – | – | – | – | 0.94 | -1 | – | – | – | – | – | – | – | – | – | – | – | – | – | Growth Rate ([2]; 0 h, replicate number 2): 0.1
O=C1c2c(Br)c(Br)c(Br)c(Br)c2C(=O)N1c1ncc[nH]1 | – | 0.88 | – | 0.8 | – | 0.85 | 0.6 | 0.63 | – | 0.37 | 0.57 | – | 0.74 | 0.78 | 0.49 | -0.34 | 0.46 | 1 | – | 0.7 | Growth Rate ([1]; 0 h, replicate number 1): 0.94; Growth Rate ([1]; 12 h, replicate number 1): -0.93; Growth Rate ([2]; 0 h, replicate number 1): 0.58; Growth Rate ([2]; 6 h, replicate number 2): 0.25
O=C(O)C(F)(F)F.O=C1NC(=O)/C(=C/c2c[nH]c(=O)c(-c3ccc(N4CCNCC4)nc3)c2)S1 | – | – | 0.97 | – | 0.96 | – | 0.51 | 0.87 | – | – | 0.93 | – | 0.96 | 0.95 | -0.06 | -0.44 | 0.62 | 0.69 | 0.69 | 0.54 | Growth Rate ([1]; 0 h, replicate number 1): 0.18; Growth Rate ([1]; 12 h, replicate number 1): -0.78; Growth Rate ([1]; 24 h, replicate number 2): 0.73; Growth Rate ([2]; 0 h, replicate number 2): -0.63; Growth Rate ([2]; 12 h, replicate number 1): 0.92
Cc1ncsc1-c1ccc(CNC(=O)[C@@H]2C[C@H](O)CN2C(=O)[C@@H](NC(=O)C2(F)CC2)C(C)(C)C)c(OCCOc2ccc(CN3CCN(c4cc(-c5ccccc5O)nnc4N)CC3)cc2)c1 | 0.56 | – | – | – | 0.98 | – | -0.03 | -0.99 | – | – | – | – | – | – | – | – | – | – | – | – | –
COc1ccc(Br)cc1S(=O)(=O)NC(=O)/C=C/c1cc(Cl)ccc1Cc1ccc2ccccc2c1 | -0.66 | – | – | 0.86 | – | – | 0.03 | 0.17 | – | – | – | – | 0.99 | 0.94 | 0.99 | -0.77 | 0.22 | 0.56 | 0.91 | – | Growth Rate ([1]; 6 h, replicate number 1): 0.77; Growth Rate ([1]; 12 h, replicate number 1): 0.99; Growth Rate ([1]; 24 h, replicate number 2): 0.39
O=C(Nc1ccccc1C(=O)O)c1cc(S(=O)(=O)c2ccccc2)ccc1Cl | -0.73 | 0.55 | 0.96 | 0.65 | 0.79 | 0.8 | -0.5 | -0.73 | 0.7 | – | 0.88 | 0.3 | 0.41 | 0.34 | – | – | – | – | – | – | Growth Rate ([2]; 0 h, replicate number 2): 0.97; Growth Rate ([3]; 12 h, replicate number 1): 0.52; Growth Rate ([3]; 24 h, replicate number 1): 0.24
CC(C(=O)Nc1cc(C#N)ccc1CCCC(=O)O)c1ccc(F)c2ccccc12 (centres undefined) | -0.98 | – | 0.92 | – | 0.78 | – | 0.5 | 0.28 | – | – | – | – | – | – | – | – | – | – | – | 0.47 | Growth Rate ([1]; 24 h, replicate number 2): 0.93; Growth Rate ([2]; 0 h, replicate number 1): 0; Growth Rate ([2]; 12 h, replicate number 1): 0.72
CC(C)(C)NC(=O)c1cncn1C1CCN(c2ccc(-c3nnc(C(F)(F)F)o3)cn2)CC1 | – | 0.34 | 0.27 | 0.46 | 0.32 | 0.6 | -0.46 | -0.33 | 0.35 | -0.15 | -0.22 | 0.18 | -0.09 | 0.08 | -0.2 | -0.99 | -0.49 | -0.39 | -0.13 | -0.4 | Growth Rate ([1]; 0 h, replicate number 1): -1; Growth Rate ([1]; 6 h, replicate number 1): 0.1; Growth Rate ([1]; 12 h, replicate number 1): -0.09; Growth Rate ([1]; 24 h, replicate number 2): -0.11; Growth Rate ([2]; 0 h, replicate number 1): -0.02; Growth Rate ([2]; 0 h, replicate number 2): 0.52; Growth Rate ([2]; 6 h, replicate number 2): 0; Growth Rate ([2]; 12 h, replicate number 1): -0.09; Growth Rate ([3]; 12 h, replicate number 1): 0.06; Growth Rate ([3]; 24 h, replicate number 1): 0.15
C1=Cc2ccccc2C(=C2CCN(CCCCc3nn[nH]n3)CC2)c2ccccc21 | -0.99 | – | – | – | 0.89 | – | 0.42 | – | 0.94 | 0.78 | 0.94 | 0.91 | – | – | – | – | – | – | – | 0.4 | –
Cc1nsc(Nc2cnc(C(F)(F)F)cn2)c1C(=O)Nc1ccc(O[C@H]2CCCN(CC(F)(F)F)C2)nc1 | – | 0.59 | 0.06 | 0.57 | 0.03 | 0.52 | -0.98 | – | -0.28 | -0.6 | -0.54 | -0.3 | -0.41 | -0.32 | -0.36 | -0.93 | – | -0.45 | -0.23 | 0.72 | Growth Rate ([1]; 0 h, replicate number 1): -1; Growth Rate ([1]; 6 h, replicate number 1): -0.21; Growth Rate ([1]; 12 h, replicate number 1): -0.43; Growth Rate ([1]; 24 h, replicate number 2): -0.3; Growth Rate ([2]; 0 h, replicate number 2): 0.91; Growth Rate ([2]; 6 h, replicate number 2): 0.73; Growth Rate ([2]; 12 h, replicate number 1): 0.39; Growth Rate ([3]; 12 h, replicate number 1): -0.36; Growth Rate ([3]; 24 h, replicate number 1): -0.25
CC(=O)c1ccc2c(c1)/C(=C(/NC1CCN(C)CC1)c1ccc3c(c1)OCO3)C(=O)N2 | – | 0.33 | 0.32 | 0.13 | 0.21 | 0.13 | -0.53 | 0.02 | -0.84 | -0.95 | -0.83 | -0.5 | -0.63 | -0.45 | 0.78 | – | 0.74 | 0.48 | 0.63 | 0.57 | Growth Rate ([1]; 24 h, replicate number 2): 0.37; Growth Rate ([2]; 12 h, replicate number 1): 0.52; Growth Rate ([3]; 12 h, replicate number 1): -0.7; Growth Rate ([3]; 24 h, replicate number 1): -0.37
C[C@H](NC(=O)c1cc(Cl)ccc1Oc1ccc(F)cc1)c1ccc(C(=O)O)cc1 | -0.45 | 0.8 | – | – | – | 0.99 | -0.19 | 0.1 | – | – | – | – | – | – | 0.85 | -0.71 | 0.98 | 0.92 | 0.86 | – | Growth Rate ([1]; 6 h, replicate number 1): 0.59; Growth Rate ([2]; 6 h, replicate number 2): 0.86; Growth Rate ([2]; 12 h, replicate number 1): 0.94
